What follows are molecules tested against T1, STING (Homo sapiens, UniProt Q86WV6, G230A/H232R/R293Q/R71H) (assay: STING reporter assay: luciferase reporter activity in THP1-Dual KO-IFNAR2 cells stimulated with 2'3'cGAMP). Conditions: 2′3′cGAMP 15 μM final, 24h, read-out: hSTING: EC50.
T1 construct: host or cells: THP1-Dual KO-IFNAR2 cells
Assay type: cell-based
Method: STING pathway activation by the compounds described herein was measured using THIP1-Dua1™ cells (KO-IFNAR2).
TTIP1-Dual™ KO-IFNAR2 Cells (obtained from invivogen) were maintained in RPMI, 10% FCS, 5 ml P/S, 2 mM L-glut, 10 mM Hepes, and 1 mM sodium pyruvate. Compounds were spotted in empty 384 well tissue culture plates (Greiner 781182) by Echo for a final concentration of 0.0017-100 μM. Cells were plated into the TC plates at 40 μL per well, 2×10E6 cells/mL. For activation with STING ligand, 2′3′cGAMP (MW 718.38, obtained from Invivogen), was prepared in Optimem media.
The following solutions were prepared for each 1×384 plate: • Solution A: 2 mL Optimem with one of the following stimuli: • […] • Solution B: 2 mL Optimem with 60 μL Lipofectamine 2000->Incubate 5 min at RT
2 mL of solution A and 2 ml Solution B was mixed and incubated for 20 min at room temperature (RT). 20 uL of transfection solution (A+B) was added on top of the plated cells, with a final 2′3′cGAMP concentration of 15 μM. The plates were then centrifuged immediately at 340 g for 1 minute, after which they were incubated at 37° C., 5% C02, >98% humidity for 24h. Luciferase reporter activity was then measured. EC50 values were calculated by using standard methods known in the art.
Luciferase reporter assay: 10 μL of supernatant from the assay was transferred to white 384-plate with flat bottom and squared wells. One pouch of QUANTI-Luc™ Plus was dissolved in 25 mL of water. 100 μL of QLC Stabilizer per 25 mL of QUANTI-Luc™ Plus solution was added. 50 μL of QUANTI-Luc™ Plus/QLC solution per well was then added. Luminescence was measured on a Platereader (e.g., Spectramax I3X (Molecular Devices GF3637001)).
Luciferase reporter activity was then measured. EC50 values were calculated by using standard methods known in the art.

T1 sequence (Q86WV6 whole entry R71H/G230A/H232R/R293Q): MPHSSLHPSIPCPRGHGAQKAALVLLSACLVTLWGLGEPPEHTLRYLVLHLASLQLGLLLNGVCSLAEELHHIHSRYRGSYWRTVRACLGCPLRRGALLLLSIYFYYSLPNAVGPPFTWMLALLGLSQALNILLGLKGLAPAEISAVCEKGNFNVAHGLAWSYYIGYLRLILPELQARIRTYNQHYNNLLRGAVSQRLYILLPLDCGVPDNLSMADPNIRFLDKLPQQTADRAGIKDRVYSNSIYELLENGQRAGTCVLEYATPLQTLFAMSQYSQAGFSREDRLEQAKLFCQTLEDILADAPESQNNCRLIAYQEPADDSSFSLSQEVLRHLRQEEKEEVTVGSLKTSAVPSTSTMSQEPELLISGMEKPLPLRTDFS

Row | Compound | EC50 [nM]
1 | O=C(NC[C@@H](C(F)F)C1CCCCC1)C(=O)Nc1c[nH]c2cc(F)c(F)cc12 [Compound 135] | 200 to 1000
2 | O=C(NC[C@H](C(F)F)C1CCCCC1)C(=O)Nc1c[nH]c2cc(F)c(F)cc12 [Compound 136] | 40 to 200
3 | CC(C)(NC(=O)C(=O)Nc1c[nH]c2cc(F)c(F)cc12)c1ccc(C(F)(F)F)c(Cl)c1 [Compound 137] | 200 to 1000
4 | O=C(NCCc1ccccc1C(F)(F)F)C(=O)Nc1c[nH]c2cc(F)c(F)cc12 [Compound 138, N1-(5,6-difluoro-1H-indol-3-yl)-N2-(2-(trifluoromethyl)phenethyl) oxalamide] | 200 to 1000
5 | O=C(NCC(c1ccccc1)C(F)F)C(=O)Nc1c[nH]c2cc(F)c(F)cc12 (stereo not drawn) [Compound 139] | 200 to 1000
6 | O=C(NCC1(c2cccc(Cl)c2)CCOCC1)C(=O)Nc1c[nH]c2cc(F)c(F)cc12 [Compound 140] | 1000 to 5000
7 | CN(Cc1ccc(C(F)(F)F)c(Cl)c1)C(=O)C(=O)Nc1c[nH]c2cc(F)c(F)cc12 [Compound 141] | 5000 to 100000
8 | O=C(NCC(C(F)F)C1CCCCC1)C(=O)Nc1c[nH]c2cc(F)c(F)cc12 (stereo not drawn) [Compound 142] | 200 to 1000
9 | O=C(NCCc1ccc(C(F)(F)F)c(Cl)c1)C(=O)Nc1c[nH]c2cc(F)c(F)cc12 [Compound 143] | 200 to 1000
10 | O=C(NCCc1ccc(C(F)(F)F)cc1)C(=O)Nc1c[nH]c2cc(F)c(F)cc12 [Compound 144, N1-(5,6-difluoro-1H-indol-3-yl)-N2-(4-(trifluoromethyl)phenethyl) oxalamide] | 200 to 1000
11 | O=C(NCC1CCc2ccccc2O1)C(=O)Nc1c[nH]c2cc(F)c(F)cc12 (stereo not drawn) [Compound 145, N-(chroman-2-ylmethyl)-N2-(5,6-difluoro-1H-indol-3-yl)oxalamide] | 200 to 1000
12 | O=C(NCC1(c2ccccc2)CC1)C(=O)Nc1c[nH]c2cc(F)c(F)cc12 [Compound 146, N1-(5,6-difluoro-1H-indol-3-yl)-N2-((1-phenylcyclopropyl)methyl)oxalamide] | 200 to 1000
13 | Cc1ccc(OCCNC(=O)C(=O)Nc2c[nH]c3cc(F)c(F)cc23)cc1C [Compound 147, N1-(5,6-difluoro-1H-indol-3-yl)-N2-(2-(3,4-dimethylphenoxy)ethyl)oxalamide] | 200 to 1000
14 | O=C(NCc1cccc2c1OC(F)(F)O2)C(=O)Nc1c[nH]c2cc(F)c(F)cc12 [Compound 148, N1-(5,6-difluoro-1H-indol-3-yl)-N2-((2,2-difluorobenzo[d] [1,3]dioxol-4-yl)methyl) oxalamide] | 40 to 200
15 | O=C(NCCOc1ccc(C(F)(F)F)cc1)C(=O)Nc1c[nH]c2cc(F)c(F)cc12 [Compound 149, N1-(5,6-difluoro-1H-indol-3-yl)-N2-(2-(4-(trifluoromethyl)phenoxy)ethyl) oxalamide] | 200 to 1000
16 | O=C(NCC1CCCC(F)(F)C1)C(=O)Nc1c[nH]c2cc(F)c(F)cc12 (stereo not drawn) [Compound 150, N1-(5,6-difluoro-1H-indol-3-yl)-N2-((3,3-difluorocyclohexyl)methyl)oxalamide] | 200 to 1000
17 | O=C(NCC1CCC(F)(F)CC1)C(=O)Nc1c[nH]c2cc(F)c(F)cc12 [Compound 151, N1-(5,6-difluoro-1H-indol-3-yl)-N2-((4,4-difluorocyclohexyl)methyl) oxalamide] | 200 to 1000
18 | O=C(NCCC1(C(F)(F)F)CC1)C(=O)Nc1c[nH]c2cc(F)c(F)cc12 [Compound 152, N1-(5,6-difluoro-1H-indol-3-yl)-N2-(2-(1-(trifluoromethyl)cyclopropyl)ethyl)oxalamide] | 200 to 1000
19 | CC1(CNC(=O)C(=O)Nc2c[nH]c3cc(F)c(F)cc23)CCC(F)(F)CC1 [Compound 153, N1-((4,4-difluoro-1-methylcyclohexyl)methyl)-N2-(5,6-difluoro-1H-indol-3-yl)oxalamide] | 1000 to 5000
20 | Cc1cc(F)c(Cl)cc1NC(=O)C(=O)Nc1c[nH]c2cc(F)c(F)cc12 [Compound 154, N1-(5-chloro-4-fluoro-2-methylphenyl)-N2-(5,6-difluoro-1H-indol-3-yl)oxalamide] | 200 to 1000
21 | O=C(NCC(F)(F)c1ccccc1)C(=O)Nc1c[nH]c2cc(F)c(F)cc12 [Compound 155, N1-(5,6-difluoro-1H-indol-3-yl)-N2-(2,2-difluoro-2-phenylethyl) oxalamide] | 200 to 1000
22 | CC(NC(=O)C(=O)Nc1c[nH]c2cc(F)c(F)cc12)c1ccc(C(F)(F)F)cc1 (stereo not drawn) [Compound 156, N1-(5,6-difluoro-1H-indol-3-yl)-N2-(1-(4-(trifluoromethyl)phenyl)ethyl) oxalamide] | 200 to 1000
23 | O=C(Nc1ccc(OCC(F)(F)F)nc1)C(=O)Nc1c[nH]c2cc(F)c(F)cc12 [Compound 157, N1-(5,6-difluoro-1H-indol-3-yl)-N2-(6-(2,2,2-trifluoroethoxy)pyridin-3-yl) oxalamide] | 200 to 1000

Row | Compound | EC50 [nM]
24 | CC(CNC(=O)C(=O)Nc1c[nH]c2cc(F)c(F)cc12)Oc1ccc(C(F)(F)F)cc1 (stereo not drawn) [Compound 158, N1-(5,6-difluoro-1H-indol-3-yl)-N2-(2-(4-(trifluoromethyl)phenoxy)propyl) oxalamide] | 200 to 1000
25 | COc1ccc(CNC(=O)C(=O)Nc2c[nH]c3cc(F)c(F)cc23)cc1C(F)(F)F [Compound 159, N1-(5,6-difluoro-1H-indol-3-yl)-N2-(4-methoxy-3-(trifluoromethyl)benzyl)oxalamide] | 200 to 1000
26 | O=C(NCc1ccc(Cl)cc1C(F)(F)F)C(=O)Nc1c[nH]c2cc(F)c(F)cc12 [Compound 160, N1-(4-chloro-2-(trifluoromethyl)benzyl)-N2-(5,6-difluoro-1H-indol-3-yl)oxalamide] | 200 to 1000
27 | COc1ccc(CNC(=O)C(=O)Nc2c[nH]c3cc(F)c(F)cc23)cc1Cl [Compound 161, N1-(3-chloro-4-methoxybenzyl) N2-(5,6-difluoro-1H-indol-3-yl)oxalamide] | 200 to 1000
28 | O=C(NCc1cccc(N2CCCCC2)c1)C(=O)Nc1c[nH]c2cc(F)c(F)cc12 [Compound 162, N1-(5,6-difluoro-1H-indol-3-yl)-N2-(3-(piperidin-1-yl)benzyl) oxalamide] | 200 to 1000
29 | O=C(NCc1cccc(C(F)(F)F)c1F)C(=O)Nc1c[nH]c2cc(F)c(F)cc12 [Compound 163, N1-(5,6-difluoro-1H-indol-3-yl)-N2-(2-fluoro-3-(trifluoromethyl)benzyl)oxalamide] | 200 to 1000
30 | O=C(NCc1ccc(Cl)c(C(F)(F)F)c1)C(=O)Nc1c[nH]c2cc(F)c(F)cc12 [Compound 164, N1-(4-chloro-3-(trifluoromethyl)benzyl)-N2-(5,6-difluoro-1H-indol-3-yl)oxalamide] | 40 to 200
31 | O=C(NCc1ccccc1C(F)(F)F)C(=O)Nc1c[nH]c2cc(F)c(F)cc12 [Compound 165, N1-(5,6-difluoro-1H-indol-3-yl)-N2-(2-(trifluoromethyl)benzyl)oxalamide] | 40 to 200
32 | O=C(NCc1cccc(OC(F)(F)F)c1)C(=O)Nc1c[nH]c2cc(F)c(F)cc12 [Compound 166, N1-(5,6-difluoro-1H-indol-3-yl)-N2-(3-(trifluoromethoxy)benzyl)oxalamide] | 200 to 1000
33 | Cc1c(NC(=O)C(=O)Nc2c[nH]c3cc(F)c(F)cc23)cccc1C(F)(F)F [Compound 167, N1-(5,6-difluoro-1H-indol-3-yl)-N2-(2-methyl-3-(trifluoromethyl)phenyl)oxalamide] | 200 to 1000
34 | Cc1ccc(CNC(=O)C(=O)Nc2c[nH]c3ccc(-c4cnn(C(C)C)c4)cc23)cc1C(F)(F)F [Compound 168] | 200 to 1000
35 | O=C(Nc1c[nH]c2cc(F)c(F)cc12)C(=O)NC1CCN(c2ccccc2)C1 (stereo not drawn) [Compound 169] | 200 to 1000
36 | Cn1cc(NC(=O)C(=O)NCc2ccc(C(F)(F)F)c(Cl)c2)c2cc(F)c(F)cc21 [Compound 170] | 5000 to 100000
37 | O=C(NCc1ccc(C(F)(F)F)c(Cl)c1)C(=O)Nc1c[nH]c2ccccc12 [Compound 171] | 200 to 1000
38 | O=C(Nc1ccc(C(F)(F)F)cc1)C(=O)Nc1c[nH]c2cc(F)ccc12 [Compound 172] | 200 to 1000
39 | O=C(NCc1cnc(C(F)(F)F)c(Cl)c1)C(=O)Nc1c[nH]c2cc(F)c(F)cc12 [Compound 173] | 200 to 1000
40 | O=C(Nc1c[nH]c2cc(F)c(F)cc12)C(=O)N[C@H]1CC[C@H](OCC(F)F)CC1 [Compound 174] | 200 to 1000
41 | O=C(Nc1ccc(C2CCC(F)(F)CC2)nc1)C(=O)Nc1c[nH]c2cc(F)c(F)cc12 [Compound 175] | 200 to 1000
42 | O=C(NC[C@@H]1CC12CCCCC2)C(=O)Nc1c[nH]c2cc(F)c(F)cc12 [Compound 176] | 200 to 1000
43 | O=C(NC[C@H]1CC12CCCCC2)C(=O)Nc1c[nH]c2cc(F)c(F)cc12 [Compound 177] | 40 to 200
44 | O=C(Nc1c[nH]c2cc(F)c(F)cc12)C(=O)NC1CCC(OCC(F)F)CC1 (stereo not drawn) [Compound 178] | 200 to 1000
45 | O=C(NCCC1CCC(F)(F)CC1)C(=O)Nc1c[nH]c2ccccc12 [Compound 179] | 1000 to 5000
